Data: patent US20260262643A1, “HERBICIDAL BENZOXAZINES” (FMC CORPORATION, priority 2022, published 2026)

Experiments:
ragweed [1] = experiment: Test C preemergence; type: in vivo, Ambrosia artemisiifolia
In short: (§1)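 Greenhouse herbicide screen, 10-day duration. Test chemicals in solvent/surfactant blend were sprayed onto soil at sowing (pre) or onto 2–10 cm seedlings at one to two leaves (post); injury scored visually against controls, 0 no effect to 100 complete control.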

corn [2] = experiment: Test C postemergence; type: in vivo, Zea mays; settings: 10 days, 0 to 100 scale (0 no effect, 100 complete control)
In short: as §1

soybean [3] = experiment: Test C preemergence; type: in vivo, Glycine max
In short: as §1

ducksalad = experiment: Test D flooded paddy test; type: in vivo, Heteranthera limosa; settings: 250 g ai/ha, applied to paddy water, visual rating after 13 to 14 days, scale 0 to 100 (0 no effect, 100 complete control)
In short: (§2)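 Plants at the 2-leaf stage were grown in pots flooded to 3 cm, and compound was applied directly into the paddy water, with depth kept throughout. After 13–14 days in a greenhouse, injury was rated visually against untreated controls on a 0–100 scale (100 = complete control); a dash means not tested.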

kochia [4] = experiment: Test C preemergence; type: in vivo, Bassia scoparia
In short: as §1

horseweed = experiment: Test C postemergence; type: in vivo, Erigeron canadensis; settings: 10 days, 0 to 100 scale (0 no effect, 100 complete control)
In short: as §1

blackgrass [5] = experiment: Test C postemergence; type: in vivo, Alopecurus myosuroides; settings: 10 days, 0 to 100 scale (0 no effect, 100 complete control)
In short: as §1

galium = experiment: Test C postemergence; type: in vivo, Galium aparine; settings: 10 days, 0 to 100 scale (0 no effect, 100 complete control)
In short: as §1

barnyardgrass [6] = experiment: Test D flooded paddy test; type: in vivo, Echinochloa crus-galli; settings: 250 g ai/ha, applied to paddy water, visual rating after 13 to 14 days, scale 0 to 100 (0 no effect, 100 complete control)
In short: as §2

ragweed [7] = experiment: Test C postemergence; type: in vivo, Ambrosia artemisiifolia; settings: 10 days, 0 to 100 scale (0 no effect, 100 complete control)
In short: as §1

barnyardgrass [8] = experiment: Test C preemergence; type: in vivo, Echinochloa crusgalli
In short: as §1

oat, wild [9] = experiment: Test C preemergence; type: in vivo, Avena fatua
In short: as §1

barnyardgrass [10] = experiment: Test C postemergence; type: in vivo, Echinochloa crusgalli; settings: 10 days, 0 to 100 scale (0 no effect, 100 complete control)
In short: as §1

kochia [11] = experiment: Test C postemergence; type: in vivo, Bassia scoparia; settings: 10 days, 0 to 100 scale (0 no effect, 100 complete control)
In short: as §1

sedge, umbrella = experiment: Test D flooded paddy test; type: in vivo, Cyperus difformis; settings: 250 g ai/ha, applied to paddy water, visual rating after 13 to 14 days, scale 0 to 100 (0 no effect, 100 complete control)
In short: as §2

wheat [12] = experiment: Test C postemergence; type: in vivo, Triticum aestivum; settings: 10 days, 0 to 100 scale (0 no effect, 100 complete control)
In short: as §1

pigweed, palmer [13] = experiment: Test C preemergence; type: in vivo, Amaranthus palmeri
In short: as §1

soybean [14] = experiment: Test C postemergence; type: in vivo, Glycine max; settings: 10 days, 0 to 100 scale (0 no effect, 100 complete control)
In short: as §1

ryegrass, Italian [15] = experiment: Test C preemergence; type: in vivo, Lolium multiflorum
In short: as §1

corn [16] = experiment: Test C preemergence; type: in vivo, Zea mays
In short: as §1

ryegrass, Italian [17] = experiment: Test C postemergence; type: in vivo, Lolium multiflorum; settings: 10 days, 0 to 100 scale (0 no effect, 100 complete control)
In short: as §1

pigweed, palmer [18] = experiment: Test C postemergence; type: in vivo, Amaranthus palmeri; settings: 10 days, 0 to 100 scale (0 no effect, 100 complete control)
In short: as §1

rice = experiment: Test D flooded paddy test; type: in vivo, Oryza sativa; settings: 250 g ai/ha, applied to paddy water, visual rating after 13 to 14 days, scale 0 to 100 (0 no effect, 100 complete control)
In short: as §2

wheat [19] = experiment: Test C preemergence; type: in vivo, Triticum aestivum
In short: as §1

blackgrass [20] = experiment: Test C preemergence; type: in vivo, Alopecurus myosuroides
In short: as §1

green foxtail [21] = experiment: Test C preemergence; type: in vivo, Setaria viridis
In short: as §1

green foxtail [22] = experiment: Test C postemergence; type: in vivo, Setaria viridis; settings: 10 days, 0 to 100 scale (0 no effect, 100 complete control)
In short: as §1

oat, wild [23] = experiment: Test C postemergence; type: in vivo, Avena fatua; settings: 10 days, 0 to 100 scale (0 no effect, 100 complete control)
In short: as §1

[24] = 500 g ai/ha, preemergence, 0 to 100 scale (0 no effect, 100 complete control)
[25] = Preemergence, 125 g ai/ha, 0 to 100 scale, 0 no effect, 100 complete control

For CCOCC1CN(C(=O)c2cc(-n3cnc(CC)n3)ccc2OC)c2cccc(Cl)c2O1 (stereo not shown) [Compound 378], the “Ragweed plant response rating” value (ragweed [1]; [24]) was 80, the “Plant response rating, Ragweed” value (ragweed [1]; [25]) was 60 and the “Plant response rating, Corn” value (corn [2]; 500 g ai/ha, postemergence) was 80. The “Plant response rating, Corn” value (corn [2]; Postemergence, 125 g ai/ha) was 20, the “Soybean plant response rating” value (soybean [3]; [24]) was 90 and the “Plant response rating, Soybean” value (soybean [3]; [25]) was 60. The “Plant response rating, Ducksalad (Flood)” value (ducksalad) was 0, the “Kochia plant response rating” value (kochia [4]; [24]) was 100 and the “Plant response rating, Kochia” value (kochia [4]; [25]) was 100. The “Plant response rating, Horseweed” value (horseweed; 500 g ai/ha, postemergence) was 70, the “Plant response rating, Horseweed” value (horseweed; Postemergence, 125 g ai/ha) was 10 and the “Plant response rating, Blackgrass” value (blackgrass [5]; 500 g ai/ha, postemergence) was 50. For the same compound, the “Plant response rating, Blackgrass” value (blackgrass [5]; Postemergence, 125 g ai/ha) was 30, the “Plant response rating, Galium” value (galium; 500 g ai/ha, postemergence) was 100 and the “Plant response rating, Galium” value (galium; Postemergence, 125 g ai/ha) was 90. For the same compound, the “Plant response rating, Barnyardgrass (Flood)” value (barnyardgrass [6]) was 0, the “Plant response rating, Ragweed” value (ragweed [7]; 500 g ai/ha, postemergence) was 90 and the “Plant response rating, Ragweed” value (ragweed [7]; Postemergence, 125 g ai/ha) was 70. For the same compound, the “Barnyardgrass plant response rating” value (barnyardgrass [8]; [24]) was 100, the “Plant response rating, Barnyardgrass” value (barnyardgrass [8]; [25]) was 80 and the “Oat, Wild plant response rating” value (oat, wild [9]; [24]) was 60. The “Plant response rating, Oat, Wild” value (oat, wild [9]; [25]) was 20, the “Plant response rating, Barnyardgrass” value (barnyardgrass [10]; 500 g ai/ha, postemergence) was 80 and the “Plant response rating, Barnyardgrass” value (barnyardgrass [10]; Postemergence, 125 g ai/ha) was 40. The “Plant response rating, Kochia” value (kochia [11]; 500 g ai/ha, postemergence) was 100, the “Plant response rating, Kochia” value (kochia [11]; Postemergence, 125 g ai/ha) was 90 and the “Plant response rating, Sedge, Umbrella (Flood)” value (sedge, umbrella) was 0. For the same compound, the “Plant response rating, Wheat” value (wheat [12]; 500 g ai/ha, postemergence) was 40, the “Plant response rating, Wheat” value (wheat [12]; Postemergence, 125 g ai/ha) was 30 and the “Pigweed, Palmer plant response rating” value (pigweed, palmer [13]; [24]) was 100. The “Plant response rating, Pigweed, Palmer” value (pigweed, palmer [13]; [25]) was 100, the “Plant response rating, Soybean” value (soybean [14]; 500 g ai/ha, postemergence) was 100 and the “Plant response rating, Soybean” value (soybean [14]; Postemergence, 125 g ai/ha) was 100. For the same compound, the “Ryegrass, Italian plant response rating” value (ryegrass, Italian [15]; [24]) was 90, the “Plant response rating, Ryegrass, Italian” value (ryegrass, Italian [15]; [25]) was 60 and the “Corn plant response rating” value (corn [16]; [24]) was 50. The “Plant response rating, Corn” value (corn [16]; [25]) was 0, the “Plant response rating, Ryegrass, Italian” value (ryegrass, Italian [17]; 500 g ai/ha, postemergence) was 60 and the “Plant response rating, Ryegrass, Italian” value (ryegrass, Italian [17]; Postemergence, 125 g ai/ha) was 20. For the same compound, the “Plant response rating, Pigweed, Palmer” value (pigweed, palmer [18]; 500 g ai/ha, postemergence) was 100, the “Plant response rating, Pigweed, Palmer” value (pigweed, palmer [18]; Postemergence, 125 g ai/ha) was 90 and the “Plant response rating, Rice (Flood)” value (rice) was 0. For the same compound, the “Wheat plant response rating” value (wheat [19]; [24]) was 30, the “Plant response rating, Wheat” value (wheat [19]; [25]) was 10 and the “Blackgrass plant response rating” value (blackgrass [20]; [24]) was 50. For the same compound, the “Plant response rating, Blackgrass” value (blackgrass [20]; [25]) was 10, the “Foxtail, Green plant response rating” value (green foxtail [21]; [24]) was 100 and the “Plant response rating, Foxtail, Green” value (green foxtail [21]; [25]) was 90. The “Plant response rating, Foxtail, Green” value (green foxtail [22]; 500 g ai/ha, postemergence) was 90, the “Plant response rating, Foxtail, Green” value (green foxtail [22]; Postemergence, 125 g ai/ha) was 70 and the “Plant response rating, Oat, Wild” value (oat, wild [23]; 500 g ai/ha, postemergence) was 30. The “Plant response rating, Oat, Wild” value (oat, wild [23]; Postemergence, 125 g ai/ha) was 0.
